Test results from PMC5601359 (Journal of Medicinal Chemistry, 2017).
Where two headings read alike, the source gives them in different places.

Assays:
[1] = tested on: HIV-1 vector carrying WT IN; conditions: read-out: EC50 WT; HOS cells, vector harboring WT IN; cited from earlier work
[2] = tested on: human osteosarcoma (HOS) cells; conditions: 50% reduction in the level of ATP in HOS cells; cited from earlier work
HIV-1 IN [3] = biological target: T1, HIV-1 IN (Human immunodeficiency virus type 1 group M subtype B, UniProt P12497); test: in vitro IN assay, 3′-processing; format: biochemical
[4] = tested on: HIV-1 vector carrying R263K IN mutant; test: single-round HIV-1 infectivity assay, vector with R263K IN; format: cell-based; conditions: EC50 of compound/EC50 of DTG
[5] = tested on: HIV-1 vector carrying G118R IN mutant; test: single-round HIV-1 infectivity assay, vector with G118R IN; format: cell-based; conditions: EC50 of compound/EC50 of DTG
[6] = tested on: HIV-1 vector carrying N155H IN mutant; test: single-round HIV-1 infectivity assay, vector with N155H IN; format: cell-based; conditions: for fold improvement relative to DTG, N155H: EC50 of compound/EC50 of DTG; for FC, fold change relative to WT, N155H: EC50 of mutant/EC50 of WT; for EC50: Human immunodeficiency virus 1, HOS, read-out: EC50 N155H
[7] = tested on: HIV-1 vector carrying H51Y/R263K IN mutant; test: single-round HIV-1 infectivity assay, vector with H51Y/R263K IN; format: cell-based; conditions: EC50 of compound/EC50 of DTG
[8] = tested on: HIV-1 vector carrying WT IN; test: single-round HIV-1 infectivity assay, vector with WT IN; format: cell-based; conditions: EC50 of compound/EC50 of DTG
[9] = tested on: HIV-1 vector carrying H51Y/R263K IN mutant; conditions: cited from earlier work; for EC50: read-out: EC50 H51Y/R263K, vector harboring H51Y/R263K IN
[10] = tested on: HIV-1 vector carrying N155H IN mutant; conditions: cited from earlier work; for FC, fold change relative to WT, N155H: EC50 of mutant/EC50 of WT; for EC50: read-out: EC50 N155H, HOS cells, vector harboring N155H IN
[11] = tested on: HIV-1 vector carrying E92Q IN mutant; conditions: cited from earlier work; for EC50: read-out: EC50 E92Q, vector harboring E92Q IN
[12] = tested on: HIV-1 vector carrying Y143R IN mutant; conditions: cited from earlier work; for FC, fold change relative to WT, Y143R: EC50 of mutant/EC50 of WT; for EC50: read-out: EC50 Y143R, HOS cells, vector harboring Y143R IN
[13] = tested on: HIV-1 vector carrying T66I IN mutant; conditions: cited from earlier work; for EC50: read-out: EC50 T66I, vector harboring T66I IN
[14] = tested on: HIV-1 vector carrying G140S/Q148H IN mutant; conditions: cited from earlier work; for FC, fold change relative to WT, G140S/Q148H: EC50 of mutant/EC50 of WT; for EC50: read-out: EC50 G140S/Q148H, HOS cells, vector harboring G140S/Q148H IN
[15] = tested on: HIV-1 vector carrying R263K IN mutant; conditions: cited from earlier work; for EC50: read-out: EC50 R263K, vector harboring R263K IN
[16] = tested on: HIV-1 vector carrying G118R IN mutant; conditions: cited from earlier work; for EC50: read-out: EC50 G118R, vector harboring G118R IN
[17] = tested on: HIV-1 vector carrying H51Y IN mutant; conditions: cited from earlier work; for EC50: read-out: EC50 H51Y, vector harboring H51Y IN
HIV-1 IN [18] = biological target: T1, HIV-1 IN; test: in vitro IN assay, strand transfer; format: biochemical
[19] = tested on: HIV-1 vector carrying Y143R IN mutant; test: single-round HIV-1 infectivity assay, vector with Y143R IN; format: cell-based; conditions: for FC, fold change relative to WT, Y143R: EC50 of mutant/EC50 of WT; for EC50: Human immunodeficiency virus 1, HOS, read-out: EC50 Y143R
[20] = tested on: HIV-1 vector carrying G140S/Q148H IN mutant; test: single-round HIV-1 infectivity assay, vector with G140S/Q148H IN; format: cell-based; conditions: for FC, fold change relative to WT, G140S/Q148H: EC50 of mutant/EC50 of WT; for EC50: Human immunodeficiency virus 1, HOS, read-out: EC50 G140S/Q148H
in vitro = conditions: human
[21] = tested on: HIV-1 vector carrying E92Q IN mutant; test: single-round HIV-1 infectivity assay, vector with E92Q IN; format: cell-based; conditions: EC50 of compound/EC50 of DTG
[22] = tested on: HIV-1 vector carrying H51Y IN mutant; test: single-round HIV-1 infectivity assay, vector with H51Y IN; format: cell-based; conditions: EC50 of compound/EC50 of DTG
[23] = tested on: HIV-1 vector carrying T66I IN mutant; test: single-round HIV-1 infectivity assay, vector with T66I IN; format: cell-based; conditions: EC50 of compound/EC50 of DTG

Nc1c(C(=O)NCc2ccc(F)cc2F)c(=O)n(O)c2ncccc12 [5′d]
EC50 [1]: 1.1 ± 0.7 nM
CC50 [2]: > 250000 nM

COC(=O)CNc1c(C(=O)NCc2ccc(F)cc2F)c(=O)n(O)c2nc(N3CCCCC3)ccc12 [5h, Methyl 2-((3-((2,4-Difluorobenzyl)carbamoyl)-1-hydroxy-2-oxo-7-(piperidin-1-yl)-1,2-dihydro-1,8-naphthyridin-4-yl)amino)acetate]
IC50 (HIV-1 IN [3]): > 333000 nM

Nc1c(C(=O)NCc2ccc(F)cc2F)c(=O)n(O)c2ncc(CCCCCO)cc12 [6′b]
fold improvement relative to DTG, R263K [4]: 2.6 ± 0.1 (0.24×)
fold improvement relative to DTG, G118R [5]: 5.3 ± 1.6 (0.41×)
fold improvement relative to DTG, N155H [6]: 2.4 ± 0.8 (0.67×)
fold improvement relative to DTG, H51Y/R263K [7]: 2.6 ± 1.4 (0.16×)
CC50 [2]: > 250000 nM
fold improvement relative to DTG, WT [8]: 1.3 ± 0.2 (0.81×)

COc1cc2c(cc1Cc1cccc(Cl)c1F)c(=O)c(C(=O)O)cn2[C@H](CO)C(C)C [EVG (2), elvitegravir]
FC, fold change relative to WT, H51Y/R263K ([9]; EC50 of mutant/EC50 of WT): 8 ×
EC50 [9]: 53 ± 18 nM
FC, fold change relative to WT, N155H [10]: 14 ×
EC50 [10]: 90 ± 18 nM
FC, fold change relative to WT, E92Q ([11]; EC50 of mutant/EC50 of WT): 24 ×
EC50 [11]: 154 ± 34 nM
FC, fold change relative to WT, Y143R [12]: 1 ×
EC50 [12]: 7.9 ± 2.3 nM
FC, fold change relative to WT, T66I ([13]; EC50 of mutant/EC50 of WT): 10 ×
EC50 [13]: 66 ± 1 nM
FC, fold change relative to WT, G140S/Q148H [14]: 891 ×
EC50 [14]: 5700 ± 1100 nM
FC, fold change relative to WT, R263K ([15]; EC50 of mutant/EC50 of WT): 2 ×
EC50 [15]: 10 ± 6 nM
FC, fold change relative to WT, G118R ([16]; EC50 of mutant/EC50 of WT): 3 ×
EC50 [16]: 21 ± 10 nM
EC50 [1]: 6.4 ± 0.8 nM
CC50 [2]: > 250000 nM
FC, fold change relative to WT, H51Y ([17]; EC50 of mutant/EC50 of WT): 0.7 ×
EC50 [17]: 4.5 ± 2.1 nM

Nc1c(C(=O)NCc2ccc(F)cc2F)c(=O)n(O)c2ncc(CCC(=O)NCCO)cc12 [6n, 4-Amino-N-(2,4-difluorobenzyl)-1-hydroxy-6-(3-((2-hydroxyethyl)amino)-3-oxopropyl)-2-oxo-1,2-dihydro-1,8-naphthyridine-3-carboxamide]
IC50 (HIV-1 IN [18]; ST IC50, as stated in text): < 10 nM

COC(=O)CNc1c(C(=O)NCc2ccc(F)cc2F)c(=O)n(O)c2ncccc12 [5′g]
FC, fold change relative to WT, Y143R [19]: 1 ×
EC50 [19]: 4.6 ± 2.2 nM
FC, fold change relative to WT, G140S/Q148H [20]: 9 ×
EC50 [20]: 36 ± 16 nM
FC, fold change relative to WT, N155H [6]: 5 ×
EC50 [6]: 19 ± 7 nM

C[C@@H]1CCO[C@H]2Cn3cc(C(=O)NCc4ccc(F)cc4F)c(=O)c(O)c3C(=O)N12 [DTG (3), dolutegravir]
EC50 [9]: 16 ± 2 nM
EC50 [10]: 3.6 ± 1.3 nM
EC50 [11]: 2.3 ± 0.4 nM
EC50 [13]: 0.9 ± 0.8 nM
EC50 [15]: 11 ± 3 nM
EC50 [16]: 13 ± 5 nM
EC50 [1]: 1.6 ± 0.9 nM
CC50 [2]: > 250000 nM

Nc1c(C(=O)NCc2ccc(F)cc2F)c(=O)n(O)c2ncc(CCCCCCOC(=O)c3ccccc3)cc12 [6c, 6-(5-Amino-6-((2,4-difluorobenzyl)carbamoyl)-8-hydroxy-7-oxo-7,8-dihydro-1,8-naphthyridin-3-yl)hexyl Benzoate]
FC, fold change relative to WT, Y143R [19]: 0.7 ×
EC50 [19]: 3.5 ± 1.2 nM
CC50 (in vitro): 14400 ± 4800 nM
IC50 (HIV-1 IN [18]; in vitro IC50 ST, gel-based protocol, Mg2+ cofactor): 3300 ± 600 nM
FC, fold change relative to WT, G140S/Q148H [20]: 4 ×
EC50 [20]: 21 ± 7.8 nM
FC, fold change relative to WT, N155H [6]: 1 ×
EC50 [6]: 5.4 ± 1.9 nM

Nc1c(C(=O)NCc2ccc(F)cc2F)c(=O)n(O)c2ncc(CCC(=O)O)cc12 [6i, 3-(5-Amino-6-((2,4-difluorobenzyl)carbamoyl)-8-hydroxy-7-oxo-7,8-dihydro-1,8-naphthyridin-3-yl)propanoic Acid]
IC50 (HIV-1 IN [18]; ST IC50, as stated in text): ≤ 10 nM

CC(=O)OCCCc1cnc2c(c1)c(N)c(C(=O)NCc1ccc(F)cc1F)c(=O)n2O [6b, 3-(5-Amino-6-((2,4-difluorobenzyl)carbamoyl)-8-hydroxy-7-oxo-7,8-dihydro-1,8-naphthyridin-3-yl)propyl Acetate]
IC50 (HIV-1 IN [18]; ST IC50, as stated in text): ≤ 10 nM

O=C(NCc1ccc(F)cc1F)c1c(O)c2cccnc2n(O)c1=O [5′a]
FC, fold change relative to WT, N155H [10]: 5 ×
EC50 [10]: 31 ± 8 nM
FC, fold change relative to WT, Y143R [12]: 2 ×
EC50 [12]: 11 ± 2 nM
FC, fold change relative to WT, G140S/Q148H [14]: 50 ×
EC50 [14]: 308 ± 125 nM
EC50 [1]: 6.2 ± 2.9 nM
CC50 [2]: 137000 ± 20000 nM

COC(=O)CNc1c(C(=O)NCc2ccc(F)cc2F)c(=O)n(O)c2nc(N3CCOCC3)ccc12 [5i, Methyl 2-((3-((2,4-Difluorobenzyl)carbamoyl)-1-hydroxy-7-morpholino-2-oxo-1,2-dihydro-1,8-naphthyridin-4-yl)amino)acetate]
IC50 (HIV-1 IN [3]): > 333000 nM

COC(=O)CCc1cnc2c(c1)c(N)c(C(=O)NCc1ccc(F)cc1F)c(=O)n2O [6p, Methyl 3-(5-Amino-6-((2,4-difluorobenzyl)carbamoyl)-8-hydroxy-7-oxo-7,8-dihydro-1,8-naphthyridin-3-yl)propanoate]
fold improvement relative to DTG, R263K [4]: 0.5 ± 0.0 (0.05×)
fold improvement relative to DTG, E92Q [21]: 2.0 ± 1.1 (0.87×)
fold improvement relative to DTG, H51Y [22]: 0.63 ± 0.30 (0.20×)
fold improvement relative to DTG, Y143R ([19]; EC50 of compound/EC50 of DTG): 0.67 ± 0.23 (0.16×)
fold improvement relative to DTG, G118R [5]: 4.8 ± 1.5 (0.37×)
IC50 (HIV-1 IN [18]; ST IC50, as stated in text): ≤ 10 nM
fold improvement relative to DTG, G140S/Q148H ([20]; EC50 of compound/EC50 of DTG): 5.3 ± 1.8 (0.91×)
fold improvement relative to DTG, N155H [6]: 2.3 ± 0.2 (0.64×)
fold improvement relative to DTG, H51Y/R263K [7]: 2.4 ± 0.8 (0.15×)
fold improvement relative to DTG, T66I [23]: 0.53 ± 0.06 (0.59×)
fold improvement relative to DTG, WT [8]: 0.67 ± 0.15 (0.42×)

Cc1nnc(C(=O)NC(C)(C)c2nc(C(=O)NCc3ccc(F)cc3)c(O)c(=O)n2C)o1 [RAL (1), raltegravir]
EC50 [9]: 6 ± 2.3 nM
EC50 [11]: 30 ± 10 nM
EC50 [13]: 2.8 ± 0.4 nM
EC50 [15]: 5.7 ± 2.3 nM
EC50 [16]: 36 ± 5 nM
EC50 [1]: 4 ± 2 nM
CC50 [2]: > 250000 nM
EC50 [17]: 3.4 ± 0.2 nM

Nc1c(C(=O)NCc2ccc(F)cc2F)c(=O)n(O)c2ncc(/C=C/C(=O)NCCO)cc12 [6o, (E)-4-Amino-N-(2,4-difluorobenzyl)-1-hydroxy-6-(3-((2-hydroxyethyl)amino)-3-oxoprop-1-en-1-yl)-2-oxo-1,2-dihydro-1,8-naphthyridine-3-carboxamide]
IC50 (HIV-1 IN [18]; ST IC50, as stated in text): < 10 nM
